Source: PubChem BioAssay AID330 (DTP/NCI, 2004)
Toxic doses and inconclusive results are not listed. The calls were made as follows: active = survival T/C of 150% or more; inactive = T/C below 125% in these data.

Test system: P388 leukemia ip, CD2F1 mice, survival T/C
Experiment: NCI In Vivo Anticancer Drug Screen. Data for tumor model P388 Leukemia (intraperitoneal) in CD2F1 (CDF1) mice
Settings: endpoint: median survival time, higher = longer survival
Summary of the method: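 Mice carrying the transplanted tumor received test compound or vehicle. Survival was recorded in each group, and the value is the treated-group measurement divided by that of the vehicle-treated control group.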

[1] = dose: 25.0 mg/kg/injection, schedule: Q01DX009 (ip), vehicle: saline with Tween-80
[2] = dose: 50.0 mg/kg/injection, schedule: Q01DX009 (ip), vehicle: saline with Tween-80
[3] = dose: 100.0 mg/kg/injection, schedule: Q01DX009 (ip), vehicle: saline with Tween-80
[4] = dose: 200.0 mg/kg/injection, schedule: Q01DX009 (ip), vehicle: saline with Tween-80
[5] = dose: 50.0 mg/kg/injection, schedule: Q01DX005 (ip), vehicle: Klucel (hydroxypropylcellulose) (HPC)
[6] = dose: 100.0 mg/kg/injection, schedule: Q01DX005 (ip), vehicle: Klucel (hydroxypropylcellulose) (HPC)
[7] = dose: 200.0 mg/kg/injection, schedule: Q01DX005 (ip), vehicle: Klucel (hydroxypropylcellulose) (HPC)
[8] = dose: 50.0 mg/kg/injection, schedule: Q01DX005 (ip), vehicle: saline
[9] = dose: 100.0 mg/kg/injection, schedule: Q01DX005 (ip), vehicle: saline
[10] = dose: 100.0 mg/kg/injection, schedule: Q04DX003 (ip), vehicle: Klucel (hydroxypropylcellulose) (HPC)
[11] = dose: 200.0 mg/kg/injection, schedule: Q04DX003 (ip), vehicle: Klucel (hydroxypropylcellulose) (HPC)
[12] = dose: 400.0 mg/kg/injection, schedule: Q04DX003 (ip), vehicle: Klucel (hydroxypropylcellulose) (HPC)

Measured: T/C

NC1=NC(c2ccccc2)C=C(c2ccccc2)N1 (stereo not drawn)
inactive: dose: 12.5 mg/kg/injection, schedule: Q04DX002 (ip), vehicle: saline with Tween-80 104 % of control | dose: 25.0 mg/kg/injection, schedule: Q04DX002 (ip), vehicle: saline with Tween-80 103 % of control | dose: 50.0 mg/kg/injection, schedule: Q04DX002 (ip), vehicle: saline with Tween-80 103 % of control

CC(O)CNC1CCCCC1 (stereo not drawn)
inactive: [1] 100 % of control | [2] 100 % of control | [3] 100 % of control

O=c1[nH]c(=O)n(C2CC(O)C(CO)O2)cc1I (stereo not drawn)
inactive: dose: 40.0 mg/kg/injection, schedule: Q01DX009 (ip), vehicle: saline with Tween-80 101 % of control | dose: 80.0 mg/kg/injection, schedule: Q01DX009 (ip), vehicle: saline with Tween-80 105 % of control | [3] 118 % of control | dose: 100.0 mg/kg/injection, schedule: Q04DX003 (ip), vehicle: saline sonified 110 % of control | dose: 160.0 mg/kg/injection, schedule: Q01DX009 (ip), vehicle: saline with Tween-80 104 % of control | [4] 118 % of control | dose: 200.0 mg/kg/injection, schedule: Q04DX003 (ip), vehicle: saline sonified 120 % of control | dose: 320.0 mg/kg/injection, schedule: Q01DX009 (ip), vehicle: saline with Tween-80 122 % of control | dose: 400.0 mg/kg/injection, schedule: Q01DX009 (ip), vehicle: saline with Tween-80 118 % of control | dose: 400.0 mg/kg/injection, schedule: Q04DX003 (ip), vehicle: saline sonified 120 % of control

CCOC(=O)C1=C(N)OC(c2ccccc2)=C(C#N)C1c1ccc(C)cc1 (stereo not drawn)
inactive: [5] 110 % of control | [6] 107 % of control | [7] 100 % of control

COc1ccc(-n2cnc3[nH]ncc3c2=O)cc1
inactive: dose: 7.5 mg/kg/injection, schedule: Q01DX005 (ip), vehicle: Klucel (hydroxypropylcellulose) (HPC) 104 % of control | dose: 15.0 mg/kg/injection, schedule: Q01DX005 (ip), vehicle: Klucel (hydroxypropylcellulose) (HPC) 106 % of control | dose: 30.0 mg/kg/injection, schedule: Q01DX005 (ip), vehicle: Klucel (hydroxypropylcellulose) (HPC) 110 % of control

CCC/C=C\C=C\C(=O)OC1C2C=C3CC(C(C)O)OC(=O)CC(O)CC4CC(OC(C)=O)C(C)(C)C(O)(CC5C/C(=C\C(=O)OC)CC(/C=C/C(C)(C)C16OC(=O)C(O)C32O6)O5)O4 (stereo not drawn)
active: dose: 0.03 mg/kg/injection, schedule: Q01DX009 (ip), vehicle: saline + alcohol 163 % of control | dose: 30.0 micrograms/kg/injection, schedule: Q01DX009 (ip), vehicle: saline + alcohol 153 % of control

CCN(CC)CCNc1ncnc2[nH]ncc12
inactive: [8] 106 % of control | [9] 101 % of control

Clc1ccc2nc(CBr)cnc2c1
inactive: dose: 6.25 mg/kg/injection, schedule: Q01DX009 (ip), vehicle: saline with Tween-80 104 % of control | dose: 12.5 mg/kg/injection, schedule: Q01DX009 (ip), vehicle: saline with Tween-80 104 % of control | [1] 100 % of control

COC1=C(C)C(=O)c2[nH]c(Cl)c(C=O)c2C1=O
inactive: dose: 100.0 mg/kg/injection, schedule: Q01DX001 (ip), vehicle: saline with Tween-80 99 % of control | dose: 200.0 mg/kg/injection, schedule: Q01DX001 (ip), vehicle: saline with Tween-80 95 % of control

c1cncc(-c2n[nH]c3c2CCc2ccccc2-3)c1
inactive: dose: 12.5 mg/kg/injection, schedule: Q01DX009 (ip), vehicle: other 121 % of control | dose: 37.5 mg/kg/injection, schedule: Q01DX009 (ip), vehicle: other 86 % of control | dose: 50.0 mg/kg/injection, schedule: Q01DX009 (ip), vehicle: other 121 % of control | dose: 75.0 mg/kg/injection, schedule: Q01DX009 (ip), vehicle: other 113 % of control | dose: 100.0 mg/kg/injection, schedule: Q01DX009 (ip), vehicle: other 111 % of control | dose: 150.0 mg/kg/injection, schedule: Q01DX009 (ip), vehicle: other 100 % of control | dose: 200.0 mg/kg/injection, schedule: Q01DX009 (ip), vehicle: other 101 % of control | dose: 300.0 mg/kg/injection, schedule: Q01DX009 (ip), vehicle: other 104 % of control

CSCCC(NC(=O)C(Cl)Cl)C(=O)O (stereo not drawn)
inactive: [5] 100 % of control | [6] 96 % of control | [7] 100 % of control

C=C(CN(C)C)C(=O)c1ccc(C(=O)C(=C)CN(C)C)cc1
inactive: dose: 0.78 mg/kg/injection, schedule: Q01DX005 (ip), vehicle: saline 105 % of control | dose: 1.56 mg/kg/injection, schedule: Q01DX005 (ip), vehicle: saline 107 % of control | dose: 3.12 mg/kg/injection, schedule: Q01DX005 (ip), vehicle: saline 108 % of control

COc1ccc2c(c1)NC(O)c1cccn1C2=O (stereo not drawn)
inactive: dose: 0.1 mg/kg/injection, schedule: Q01DX005 (ip), vehicle: water 91 % of control | dose: 0.2 mg/kg/injection, schedule: Q01DX005 (ip), vehicle: water 91 % of control | dose: 0.4 mg/kg/injection, schedule: Q01DX005 (ip), vehicle: water 93 % of control | dose: 0.8 mg/kg/injection, schedule: Q01DX005 (ip), vehicle: water 96 % of control | dose: 1.6 mg/kg/injection, schedule: Q01DX005 (ip), vehicle: water 102 % of control | dose: 5.0 mg/kg/injection, schedule: Q01DX005 (ip), vehicle: distilled water + Tween-80 100 % of control | dose: 10.0 mg/kg/injection, schedule: Q01DX005 (ip), vehicle: distilled water + Tween-80 94 % of control | dose: 20.0 mg/kg/injection, schedule: Q01DX005 (ip), vehicle: distilled water + Tween-80 100 % of control | dose: 40.0 mg/kg/injection, schedule: Q01DX005 (ip), vehicle: distilled water + Tween-80 95 % of control | dose: 80.0 mg/kg/injection, schedule: Q01DX005 (ip), vehicle: distilled water + Tween-80 91 % of control

COc1ccc(C[Se][Se]Cc2ccc(OC)cc2)cc1
inactive: dose: 6.25 mg/kg/injection, schedule: Q01DX009 (ip), vehicle: Klucel (hydroxypropylcellulose) (HPC) 99 % of control | dose: 12.5 mg/kg/injection, schedule: Q01DX009 (ip), vehicle: Klucel (hydroxypropylcellulose) (HPC) 108 % of control | dose: 25.0 mg/kg/injection, schedule: Q01DX009 (ip), vehicle: Klucel (hydroxypropylcellulose) (HPC) 106 % of control

O=C1C=CC2=Cc3ccccc3CN12
inactive: dose: 60.0 mg/kg/injection, schedule: Q01DX005 (ip), vehicle: saline with Tween-80 100 % of control | dose: 120.0 mg/kg/injection, schedule: Q01DX005 (ip), vehicle: saline with Tween-80 100 % of control | dose: 240.0 mg/kg/injection, schedule: Q01DX005 (ip), vehicle: saline with Tween-80 100 % of control

COc1cc2c(cc1OC)C1C(=O)c3c(O)cc4c(c3OC1CO2)C=CC(C)(C)O4 (stereo not drawn)
inactive: dose: 12.5 mg/kg/injection, schedule: Q01DX005 (ip), vehicle: Klucel (hydroxypropylcellulose) (HPC) 98 % of control | dose: 25.0 mg/kg/injection, schedule: Q01DX005 (ip), vehicle: Klucel (hydroxypropylcellulose) (HPC) 100 % of control | [5] 107 % of control | [6] 107 % of control | [7] 111 % of control | dose: 400.0 mg/kg/injection, schedule: Q01DX005 (ip), vehicle: Klucel (hydroxypropylcellulose) (HPC) 111 % of control

CN1CCC/C1=C\C(=O)c1ccc([N+](=O)[O-])cc1
inactive: [10] 107 % of control | [11] 107 % of control | [12] 93 % of control

COc1ccc(CCC(=O)O)c(C(CC(=O)O)C(=O)O)c1OS(=O)(=O)c1ccc(C)cc1 (stereo not drawn)
inactive: [2] 94 % of control | [3] 105 % of control | [4] 97 % of control

CC(C)(C)N1CCC1CN (stereo not drawn)
inactive: dose: 25.0 mg/kg/injection, schedule: Q01DX005 (ip), vehicle: saline 90 % of control | [8] 100 % of control | [9] 104 % of control | dose: 200.0 mg/kg/injection, schedule: Q01DX005 (ip), vehicle: saline 100 % of control

CC(=O)Nc1ccc2c(c1)C(=O)c1ccccc1-2
inactive: [10] 100 % of control | [11] 110 % of control | [12] 110 % of control

COC1CC(O)(CCNc2ccc([N+](=O)[O-])cc2[N+](=O)[O-])C(O)C(CO)O1 (stereo not drawn)
inactive: dose: 20.0 mg/kg/injection, schedule: Q01DX001 (ip), vehicle: Klucel (hydroxypropylcellulose) (HPC) 100 % of control | dose: 40.0 mg/kg/injection, schedule: Q01DX001 (ip), vehicle: Klucel (hydroxypropylcellulose) (HPC) 93 % of control | dose: 80.0 mg/kg/injection, schedule: Q01DX001 (ip), vehicle: Klucel (hydroxypropylcellulose) (HPC) 94 % of control
